Results taken from patent US6943183B2 (Pfizer Inc, priority 2000, dated 2005).

target: T1, SF9 affinity purified rat FPT (Rattus norvegicus, UniProt Q02293+Q04631); assay: PFT (FPT) inhibitory activity assay, radiolabeled farnesyl pyrophosphate and biotinyl peptide, streptavidin beads; type: biochemical; details: HEPES buffer pH 7.4, 30° C., 30 minutes; read-out: FTase IC50
T1 construct: made in house; host or cells: Sf9 insect cells
Method in brief: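 Rat FPT expressed in SF9 cells was incubated 30 minutes at 30° C. with compound (in 10% DMSO), radiolabeled farnesyl pyrophosphate and biotinylated peptide. Buffer: HEPES pH 7.4, ZnCl2 20 μM, MgCl2 and DTT 5 mM each, 0.1% PEG 8000, 5 mM potassium phosphate (also run without phosphate). Product captured on streptavidin beads in magnesium acetate/H3PO4 stop buffer.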

| IC50 [nM] | SMILES |
| --- | --- |
| 6 | O=C(Nc1c(O[C@H](Cn2ccnc2)c2ccccc2)ccc2c1CCCC2=O)c1cc2ccccc2cn1 [Compound 40b, Isoquinioline-3-carboxylic acid [2-((S)-2-imidazol-1-yl-1-phenyl-ethoxy)-5-oxo-5,6,7,8-tetrahydro-naphthalen-1-yl]-amide] |
| 2.5 | CC(C)[C@@H](Cn1ccnc1)Oc1ccc2c(c1NC(=O)c1nccc3ccccc13)CCCC2=O [Compound 63h, Isoquinoline-1-carboxylic acid [2-((S)-1-imidazol-1-ylmethyl-2-methyl-propoxy)-5-oxo-5,6,7,8-tetrahydro-naphthalen-1-yl]-amide] |
| 1 | O=C1CCCc2c1ccc(O[C@H](Cn1ccnc1)c1ccccc1)c2NS(=O)(=O)Cc1ccccc1 [Compound 39, N-[2-((S)-2-Imidazol-1-yl-1-phenyl-ethoxy)-5-oxo-5,6,7,8-tetrahydro-naphthalen-1-yl]-1-phenyl-methanesulfonamide] |
| 0.2 | COCCNC(=O)c1ccccc1S(=O)(=O)Cc1c(O[C@H](Cn2ccnc2)c2ccccc2)ccc2c1CCCC2=O [Compound 264, 2-{[(2-{[(1S)-2-(1H-Imidazol-1-yl)-1-phenylethyl]oxy}-5-oxo-5,6,7,8-tetrahydro-1-naphthalenyl)-methyl]sulfonyl}-N-(2-methoxyethyl)benzamide] |
| 3 | O=C1CCCc2c1ccc(O[C@H](Cn1ccnc1)c1ccccc1)c2COc1ccc2ncccc2c1 [Compound 108, 6-((1S)-2-Imidazolyl-1-phenylethoxy)-5-(6-quinolyloxymethyl)-2,3,4-trihydronaphthalen-1-one] |
| 0.2 | CC[C@H](C)CNC(=O)c1cccc(S(=O)(=O)Cc2c(O[C@H](Cn3ccnc3)c3ccccc3)ccc3c2CCCC3=O)c1 [Compound 248] |
| 9 | Cc1ccc(OCc2c(O[C@H](Cn3ccnc3)c3ccccc3)ccc3c2CCCC3=O)cn1 [Compound 82] |
| 2.6 | COC(=O)c1ccccc1S(=O)(=O)Cc1c(O[C@H](Cn2ccnc2)c2ccccc2)ccc2c1CCCC2=O [Compound 154, Methyl 2-{[(2-{[(1S)-2-(1H-Imidazol-1-yl)-1-phenylethyl]oxy}-5-oxo-5,6,7,8-tetrahydro-1-naphthalenyl)methyl]sulfonyl}benzoate] |
| 10 | O=C(NCCO)c1ccc(S(=O)(=O)Cc2c(O[C@H](Cn3ccnc3)c3ccccc3)ccc3c2CCCC3=O)cc1 [Compound 175, N-(2-Hydroxyethyl)-4-{[(2-{[(1S)-2-(1H-imidazol-1-yl)-1-phenylethyl]oxy}-5-oxo-5,6,7,8-tetrahydro-1-naphthalenyl)methyl]sulfonyl}benzamide] |
| 0.55 | O=C1CCCc2c1ccc(O[C@H](Cn1ccnc1)c1ccccc1)c2C[S+]([O-])c1ccccn1 (mixture of isomers) [Compound 142, 6-((S)-2-Imidazol-1-yl-1-phenyl-ethoxy)-5-(pyridine-2-sulfinylmethyl)-3,4-dihydro-2H-napthalen-1-one] |
| 7 | O=C(O)CCNC(=O)c1ccccc1SCc1c(O[C@H](Cn2ccnc2)c2ccccc2)ccc2c1CCCC2=O [Compound 169, N-2-{[(2-{[(1S)-2-(1H-Imidazol-1-yl)-1-phenylethyl]oxy}-5-oxo-5,6,7,8-tetrahydro-1-naphthalenyl)methyl]sulfanyl}benzoyl-β-alanine] |
| 0.2 | C#CCNC(=O)c1ccccc1SCc1c(O[C@H](Cn2ccnc2)c2ccccc2)ccc2c1CCCC2=O [Compound 211, 2-{[(2-{[(1S)-2-(1H-Imidazol-1-yl)-1-phenylethyl]oxy}-5-oxo-5,6,7,8-tetrahydro-1-naphthalenyl)methyl]sulfanyl}-N-(2-propynyl)benzamide] |
| 0.2 | C=CCNC(=O)c1cccc(SCc2c(O[C@H](Cn3ccnc3)c3ccccc3)ccc3c2CCCC3=O)c1 [Compound 210, N-Allyl-3-{[(2-{[(1S)-2-(1H-imidazol-1-yl)-1-phenylethyl]oxy}-5-oxo-5,6,7,8-tetrahydro-1-naphthalenyl)methyl]sulfanyl}benzamide] |
| 0.2 | O=C1CCCc2c1ccc(O[C@H](Cn1ccnc1)c1ccccc1)c2CNc1ccccc1 [Compound 11] |
| 4 | CN(Cc1c(O[C@H](Cn2ccnc2)c2ccccc2)ccc2c1CCCC2=O)c1ccccc1 [Compound 12] |
| 7 | COC(=O)c1cccc(OCc2c(O[C@H](Cn3ccnc3)c3ccccc3)ccc3c2CCCC3=O)c1 [Compound 88, Methyl 3-{[2-((1S)-2-imidazolyl-1-phenylethoxy)-5-oxo-6,7,8-trihydronaphthyl]methoxy}benzoate] |

| IC50 [nM] | SMILES |
| --- | --- |
| 10 | CCCc1c(S[C@H](Cn2ccnc2)c2ccccc2)ccc2c1CCCC2=O [Compound 62, 6-((1S)-2-imidazolyl-1-phenylethylthio)-5-propyl-2,3,4-trihydronaphthalen-1-one] |
| 0.3 | COC(=O)c1ccccc1SCc1c(O[C@H](Cn2ccnc2)c2ccccc2)ccc2c1CCCC2=O [Compound 4, Methyl 2-{[2-((1S)-2-imidazolyl-1-phenylethoxy)-5-oxo-6,7,8-trihydronaphthyl]methylthio}benzoate] |
| 0.2 | C#CCNC(=O)c1cccc(S(=O)(=O)Cc2c(O[C@H](Cn3ccnc3)c3ccccc3)ccc3c2CCCC3=O)c1 [Compound 215, 3-{[(2-{[(1S)-2-(1H-Imidazol-1-yl)-1-phenylethyl]oxy}-5-oxo-5,6,7,8-tetrahydro-1-naphthalenyl)methyl]sulfonyl}-N-(2-propynyl)benzamide] |
| 0.2 | O=C(NCc1ccco1)c1ccccc1SCc1c(O[C@H](Cn2ccnc2)c2ccccc2)ccc2c1CCCC2=O [Compound 240, N-(2-Furylmethyl)-2-{[(2-{[(1S)-2-(1H-imidazol-1-yl)-1-phenylethyl]oxy}-5-oxo-5,6,7,8-tetrahydro-1-naphthalenyl)methyl]sulfanyl}benzamide] |
| 5 | O=C1CCCc2c1ccc(O[C@H](Cn1ccnc1)c1ccccc1)c2CNc1ccc2c(c1)OCCO2 [Compound 152, 5-[(2,3-Dihydro-benzo[1,4]dioxin-6-ylamino)-methyl]-6-((S)-2-imidazol-1-yl-1-phenyl-ethoxy)-3,4-dihydro-2H-napthalen-1-one] |
| 4 | Cc1ccc(OCc2c(O[C@H](Cn3ccnc3)c3ccccc3)ccc3c2CCCC3=O)cc1 [Compound 100] |
| 6 | CN(C)CCNC(=O)c1ccccc1S(=O)(=O)Cc1c(O[C@H](Cn2ccnc2)c2ccccc2)ccc2c1CCCC2=O [Compound 180, N-[2-(Dimethylamino)ethyl]-2-{[(2-{[(1S)-2-(1H-imidazol-1-yl)-1-phenylethyl]oxy}-5-oxo-5,6,7,8-tetrahydro-1-naphthalenyl)methyl]sulfonyl}benzamide] |
| 8 | O=C(NCc1c(O[C@H](Cn2ccnc2)c2ccccc2)ccc2c1CCCC2=O)c1ccccn1 [Compound 42h, Pyridine-2-carboxylic acid [2-((S)-2-imidazol-1-yl-1-phenyl-ethoxy)-5-oxo-5,6,7,8-tetrahydro-naphthalen-1-ylmethyl]-amide] |
| 3 | CC(C)c1cccc(OCc2c(O[C@H](Cn3ccnc3)c3ccccc3)ccc3c2CCCC3=O)c1 [Compound 74] |
| 17 | C=CCc1c(OC(Cn2ccnc2)c2ccccc2)ccc2c1CCCC2=O (racemic) [Compound 49, (±)-6-(2-imidazolyl-1-phenylethoxy)-5-prop-2-ethyl-2,3,4-trihydronaphthalen-1-one] |
| 1.7 | O=C1CCCc2c1ccc(O[C@H](Cn1ccnc1)c1ccccc1)c2CN1C(=O)c2ccccc2C1=O [Compound 43, 2-{[2-((1S)-2-imidazolyl-1-phenylethoxy)-5-oxo-6,7,8-trihydronaphenyl]methyl}isoindoline-1,3-dione] |
| 18 | Cc1ccc(OCc2c(O[C@H](Cn3ccnc3)c3ccccc3)ccc3c2CCCC3=O)cn1 [Compound 83, 6-((1S)-2-imidazolyl-1-phenylethoxy)-5-[(6-methyl(3-pyridyloxy))methyl]-2,3,4-trihydronaphthalen-1-one] |
| 7 | CNC(=O)c1cccc(SCc2c(O[C@H](Cn3ccnc3)c3ccccc3)ccc3c2CCCC3=O)c1 [Compound 192, 3-{[(2-{[(1S)-2-(1H-Imidazol-1-yl)-1-phenylethyl]oxy}-5-oxo-5,6,7,8-tetrahydro-1-naphthalenyl)methyl]sulfanyl}-N-methylbenzamide] |
| 5.3 | O=C1CCCc2c1ccc(O[C@H](Cn1ccnc1)c1ccccc1)c2CSCc1ccc(Cl)c(Cl)c1 [Compound 10c, 5-(3,4-Dichloro-benzylsulfanylmethyl)-6-((1S)-2-imidazol-1-yl-1-phenyl-ethoxy)-3,4-dihydro-2H-naphthalen-1-one] |
| 0.2 | C[C@H](O)CNC(=O)c1ccccc1S(=O)(=O)Cc1c(O[C@H](Cn2ccnc2)c2ccccc2)ccc2c1CCCC2=O [Compound 201, N-[(2S)-2-Hydroxypropyl]-2-{[(2-{[(1S)-2-(1H-imidazol-1-yl)-1-phenylethyl]oxy}-5-oxo-5,6,7,8-tetrahydro-1-naphthalenyl)methyl]sulfonyl}benzamide] |
| 10 | COC(=O)c1ccc(CCc2c(O[C@H](Cn3ccnc3)c3ccccc3)ccc3c2CCCC3=O)cc1 [Compound 27, Methyl 4-(2-[2-((1S)-2-imidazolyl-1-phenylethoxy)-5-oxo-6,7,8-trihydronaphthyl]ethyl}benzoate] |

| SMILES | IC50 [nM] |
| --- | --- |
| C=CCc1c(OC(Cn2ccnc2)c2c(Cl)cccc2Cl)ccc2c1CCCC2=O (racemic) [Compound 60, (±)-6-[0-(2,6-Dichlorophenyl)-2-imidazolylethoxy]-5-prop-2-enyl-2,3,4-trihydronaphthalen-1-one, Trifluoroacetic Acid] | 29 |
| CCC(C)OCc1c(O[C@H](Cn2ccnc2)c2ccccc2)ccc2c1CCCC2=O (mixture of isomers) [Compound 19d, (±)5-sec-Butoxymethyl-6-((S)-2-imidazol-1-yl-1-phenyl-ethoxy)-3,4-dihydro-2H-naphthalen-1-one] | 1.9 |
